Literature values in article PMC9851200, “Multiparameter phenotypic screening for endogenous TFEB and TFE3 translocation identifies novel chemical series modulating lysosome function” (Autophagy, 2022).

Key:
Design in all cases: method as in original PKIS2 published data
[1] = molecular target: T1, kinases (KINOMEscan panel) (Homo sapiens, UniProt O75385); details: Published KINOMEscan; ref original PKIS2 published data; cited from earlier work
T1 sequence (O75385 1-1050): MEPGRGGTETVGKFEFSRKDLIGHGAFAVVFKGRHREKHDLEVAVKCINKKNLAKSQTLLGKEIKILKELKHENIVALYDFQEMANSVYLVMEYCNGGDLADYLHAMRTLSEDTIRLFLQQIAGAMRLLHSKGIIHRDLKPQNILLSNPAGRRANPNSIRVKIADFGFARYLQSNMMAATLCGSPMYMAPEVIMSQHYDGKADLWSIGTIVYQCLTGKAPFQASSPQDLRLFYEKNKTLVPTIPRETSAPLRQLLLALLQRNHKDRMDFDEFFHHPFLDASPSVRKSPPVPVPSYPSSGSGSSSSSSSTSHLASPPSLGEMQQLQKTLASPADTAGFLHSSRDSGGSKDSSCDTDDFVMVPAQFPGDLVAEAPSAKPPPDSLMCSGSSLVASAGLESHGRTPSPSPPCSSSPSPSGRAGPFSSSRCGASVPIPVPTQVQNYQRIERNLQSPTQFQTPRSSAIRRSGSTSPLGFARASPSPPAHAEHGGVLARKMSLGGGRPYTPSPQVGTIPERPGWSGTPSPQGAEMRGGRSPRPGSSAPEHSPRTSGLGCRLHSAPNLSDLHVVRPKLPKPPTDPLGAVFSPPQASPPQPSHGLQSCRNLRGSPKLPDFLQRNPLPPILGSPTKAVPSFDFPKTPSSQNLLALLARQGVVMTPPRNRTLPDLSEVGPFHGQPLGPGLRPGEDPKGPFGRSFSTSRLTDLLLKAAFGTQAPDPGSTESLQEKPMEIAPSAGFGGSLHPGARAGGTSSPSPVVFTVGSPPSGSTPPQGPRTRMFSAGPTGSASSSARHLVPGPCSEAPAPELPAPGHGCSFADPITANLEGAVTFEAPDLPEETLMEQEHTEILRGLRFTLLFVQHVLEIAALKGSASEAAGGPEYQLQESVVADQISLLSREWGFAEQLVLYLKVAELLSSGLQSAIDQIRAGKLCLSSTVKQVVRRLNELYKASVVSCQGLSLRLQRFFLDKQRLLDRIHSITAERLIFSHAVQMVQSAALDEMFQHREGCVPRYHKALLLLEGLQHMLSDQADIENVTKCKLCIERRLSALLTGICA

[2] = molecular target: kinases (KINOMEscan panel) (Homo sapiens, UniProt P42338); details: PIK3CB; Published KINOMEscan; ref original PKIS2 published data; cited from earlier work
Chain of kinases (KINOMEscan panel) (Homo sapiens, UniProt P42338) (P42338 whole entry): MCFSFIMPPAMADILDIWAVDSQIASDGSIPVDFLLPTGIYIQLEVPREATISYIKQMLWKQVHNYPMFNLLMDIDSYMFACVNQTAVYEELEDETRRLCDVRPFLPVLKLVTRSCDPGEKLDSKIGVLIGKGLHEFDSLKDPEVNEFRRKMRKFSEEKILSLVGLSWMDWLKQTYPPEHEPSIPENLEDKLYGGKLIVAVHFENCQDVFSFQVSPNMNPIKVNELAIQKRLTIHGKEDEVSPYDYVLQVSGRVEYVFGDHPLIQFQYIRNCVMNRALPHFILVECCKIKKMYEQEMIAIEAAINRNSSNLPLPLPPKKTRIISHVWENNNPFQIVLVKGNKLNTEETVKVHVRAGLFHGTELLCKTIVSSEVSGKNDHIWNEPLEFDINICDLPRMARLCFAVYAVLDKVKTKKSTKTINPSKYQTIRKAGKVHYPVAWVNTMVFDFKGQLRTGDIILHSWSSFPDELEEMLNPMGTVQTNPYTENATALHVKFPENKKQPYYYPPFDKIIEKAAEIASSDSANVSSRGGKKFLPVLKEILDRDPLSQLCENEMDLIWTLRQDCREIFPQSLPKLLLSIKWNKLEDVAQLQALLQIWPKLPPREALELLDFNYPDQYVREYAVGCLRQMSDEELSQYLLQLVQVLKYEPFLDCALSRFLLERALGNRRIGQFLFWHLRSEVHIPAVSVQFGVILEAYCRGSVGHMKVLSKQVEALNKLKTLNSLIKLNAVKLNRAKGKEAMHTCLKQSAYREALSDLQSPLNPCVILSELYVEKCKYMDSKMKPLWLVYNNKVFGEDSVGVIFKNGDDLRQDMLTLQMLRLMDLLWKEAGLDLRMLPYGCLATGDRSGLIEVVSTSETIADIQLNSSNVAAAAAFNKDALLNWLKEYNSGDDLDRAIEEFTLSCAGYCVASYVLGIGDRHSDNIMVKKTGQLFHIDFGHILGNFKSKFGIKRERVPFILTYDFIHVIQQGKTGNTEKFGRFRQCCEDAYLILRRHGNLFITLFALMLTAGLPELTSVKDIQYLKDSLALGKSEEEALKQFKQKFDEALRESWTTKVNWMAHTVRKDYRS

[3] = molecular target: kinases (KINOMEscan panel) (Homo sapiens, UniProt Q05655); details: kinase PRKCD; Published KINOMEscan; ref original PKIS2 published data; cited from earlier work
Chain of kinases (KINOMEscan panel) (Homo sapiens, UniProt Q05655) (Q05655 whole entry): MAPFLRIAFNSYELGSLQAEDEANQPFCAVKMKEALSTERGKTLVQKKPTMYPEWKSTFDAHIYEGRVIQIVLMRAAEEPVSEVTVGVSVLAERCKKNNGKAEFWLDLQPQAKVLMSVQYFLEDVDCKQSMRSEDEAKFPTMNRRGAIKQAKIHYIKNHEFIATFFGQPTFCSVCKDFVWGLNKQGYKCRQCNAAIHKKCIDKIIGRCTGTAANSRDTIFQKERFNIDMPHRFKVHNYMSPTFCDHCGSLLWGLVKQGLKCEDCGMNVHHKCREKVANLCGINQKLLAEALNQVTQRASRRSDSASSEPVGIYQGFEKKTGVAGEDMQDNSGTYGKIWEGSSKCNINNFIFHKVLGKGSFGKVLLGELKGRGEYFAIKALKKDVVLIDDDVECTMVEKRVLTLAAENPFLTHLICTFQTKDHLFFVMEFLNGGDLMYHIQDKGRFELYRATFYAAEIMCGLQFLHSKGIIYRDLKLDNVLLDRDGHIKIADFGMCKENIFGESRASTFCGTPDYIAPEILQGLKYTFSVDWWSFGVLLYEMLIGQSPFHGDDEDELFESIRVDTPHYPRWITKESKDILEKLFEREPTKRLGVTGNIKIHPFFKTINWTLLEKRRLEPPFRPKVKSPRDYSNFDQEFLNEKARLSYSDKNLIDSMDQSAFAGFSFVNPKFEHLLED

[4] = molecular target: kinases (KINOMEscan panel) (Homo sapiens, UniProt Q14680); details: kinase MELK; Published KINOMEscan; ref original PKIS2 published data; cited from earlier work
Chain of kinases (KINOMEscan panel) (Homo sapiens, UniProt Q14680) (Q14680 whole entry): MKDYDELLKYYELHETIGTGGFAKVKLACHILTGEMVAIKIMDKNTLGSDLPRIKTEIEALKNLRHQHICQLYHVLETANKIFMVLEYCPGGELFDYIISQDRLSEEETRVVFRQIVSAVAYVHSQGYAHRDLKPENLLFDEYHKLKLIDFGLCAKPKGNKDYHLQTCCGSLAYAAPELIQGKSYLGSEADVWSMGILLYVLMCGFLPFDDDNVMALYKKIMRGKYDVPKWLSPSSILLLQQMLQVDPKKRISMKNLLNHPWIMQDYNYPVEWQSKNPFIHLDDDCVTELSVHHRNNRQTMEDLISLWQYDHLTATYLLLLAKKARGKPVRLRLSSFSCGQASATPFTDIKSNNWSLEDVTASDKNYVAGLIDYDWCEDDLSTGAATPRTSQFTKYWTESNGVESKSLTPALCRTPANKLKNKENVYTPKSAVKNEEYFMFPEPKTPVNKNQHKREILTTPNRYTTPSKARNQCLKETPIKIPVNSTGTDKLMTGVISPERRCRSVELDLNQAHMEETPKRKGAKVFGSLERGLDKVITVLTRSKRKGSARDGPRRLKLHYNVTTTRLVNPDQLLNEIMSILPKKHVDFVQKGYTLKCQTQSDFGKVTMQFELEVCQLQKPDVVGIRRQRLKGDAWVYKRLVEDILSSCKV

[5] = molecular target: kinases (KINOMEscan panel) (Homo sapiens, UniProt Q9BX84); details: TRPM6; Published KINOMEscan; ref original PKIS2 published data; cited from earlier work
Chain of kinases (KINOMEscan panel) (Homo sapiens, UniProt Q9BX84) (Q9BX84 whole entry): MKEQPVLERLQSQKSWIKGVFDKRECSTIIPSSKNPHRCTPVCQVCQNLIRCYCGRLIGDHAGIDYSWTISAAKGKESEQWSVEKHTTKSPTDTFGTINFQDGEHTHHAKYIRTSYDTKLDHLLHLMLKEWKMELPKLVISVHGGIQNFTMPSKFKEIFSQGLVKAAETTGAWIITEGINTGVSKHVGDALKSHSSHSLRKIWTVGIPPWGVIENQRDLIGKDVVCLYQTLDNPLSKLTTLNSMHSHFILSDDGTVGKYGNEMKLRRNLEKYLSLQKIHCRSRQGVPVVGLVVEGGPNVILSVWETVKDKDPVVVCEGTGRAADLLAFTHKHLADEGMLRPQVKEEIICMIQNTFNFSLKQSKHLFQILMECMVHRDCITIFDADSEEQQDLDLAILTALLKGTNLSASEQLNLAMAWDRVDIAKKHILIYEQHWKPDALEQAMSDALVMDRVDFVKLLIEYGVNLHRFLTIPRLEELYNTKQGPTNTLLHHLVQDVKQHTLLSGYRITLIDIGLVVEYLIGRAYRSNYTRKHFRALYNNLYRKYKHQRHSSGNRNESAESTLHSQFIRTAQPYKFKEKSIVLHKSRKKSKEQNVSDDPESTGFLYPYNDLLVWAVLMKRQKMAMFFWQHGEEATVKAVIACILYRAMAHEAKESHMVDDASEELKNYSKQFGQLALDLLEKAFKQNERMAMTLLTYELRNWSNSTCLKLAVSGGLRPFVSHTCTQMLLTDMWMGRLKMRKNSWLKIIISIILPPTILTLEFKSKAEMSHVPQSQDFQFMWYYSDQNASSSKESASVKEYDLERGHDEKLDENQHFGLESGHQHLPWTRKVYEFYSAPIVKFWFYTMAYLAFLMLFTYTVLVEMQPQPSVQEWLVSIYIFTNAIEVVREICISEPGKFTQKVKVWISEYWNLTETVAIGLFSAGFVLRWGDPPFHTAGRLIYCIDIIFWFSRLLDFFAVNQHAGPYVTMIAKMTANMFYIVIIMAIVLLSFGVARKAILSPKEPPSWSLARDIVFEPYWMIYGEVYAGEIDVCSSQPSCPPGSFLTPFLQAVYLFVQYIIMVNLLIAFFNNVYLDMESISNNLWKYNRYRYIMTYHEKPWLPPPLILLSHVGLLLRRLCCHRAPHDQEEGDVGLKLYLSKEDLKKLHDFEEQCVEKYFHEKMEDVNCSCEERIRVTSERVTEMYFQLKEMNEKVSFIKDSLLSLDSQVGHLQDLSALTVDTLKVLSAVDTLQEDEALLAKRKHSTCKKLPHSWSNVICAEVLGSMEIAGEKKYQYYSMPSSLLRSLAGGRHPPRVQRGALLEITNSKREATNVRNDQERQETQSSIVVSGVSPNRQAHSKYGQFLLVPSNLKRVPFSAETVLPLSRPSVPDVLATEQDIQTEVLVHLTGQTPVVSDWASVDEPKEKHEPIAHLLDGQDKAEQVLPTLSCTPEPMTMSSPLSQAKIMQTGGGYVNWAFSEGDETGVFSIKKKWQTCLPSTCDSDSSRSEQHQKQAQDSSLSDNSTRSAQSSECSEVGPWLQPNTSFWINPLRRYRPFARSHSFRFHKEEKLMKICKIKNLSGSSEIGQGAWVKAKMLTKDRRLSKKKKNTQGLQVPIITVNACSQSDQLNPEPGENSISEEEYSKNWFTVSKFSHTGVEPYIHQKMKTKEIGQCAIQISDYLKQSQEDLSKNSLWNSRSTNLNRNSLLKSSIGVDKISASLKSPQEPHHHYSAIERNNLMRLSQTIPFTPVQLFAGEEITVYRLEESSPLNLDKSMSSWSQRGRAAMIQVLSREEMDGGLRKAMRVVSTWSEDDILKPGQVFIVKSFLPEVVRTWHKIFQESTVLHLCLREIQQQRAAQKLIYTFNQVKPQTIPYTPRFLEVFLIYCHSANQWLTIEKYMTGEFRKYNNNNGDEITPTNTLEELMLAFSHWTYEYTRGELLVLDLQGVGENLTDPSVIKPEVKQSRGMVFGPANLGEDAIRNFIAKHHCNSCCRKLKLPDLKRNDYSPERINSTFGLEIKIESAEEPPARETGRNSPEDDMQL

[6] = molecular target: T2, kinases (KINOMEscan panel) (Homo sapiens, UniProt Q9NRP7); details: STK36; Published KINOMEscan; ref original PKIS2 published data; cited from earlier work
T2 sequence (Q9NRP7 1-1315): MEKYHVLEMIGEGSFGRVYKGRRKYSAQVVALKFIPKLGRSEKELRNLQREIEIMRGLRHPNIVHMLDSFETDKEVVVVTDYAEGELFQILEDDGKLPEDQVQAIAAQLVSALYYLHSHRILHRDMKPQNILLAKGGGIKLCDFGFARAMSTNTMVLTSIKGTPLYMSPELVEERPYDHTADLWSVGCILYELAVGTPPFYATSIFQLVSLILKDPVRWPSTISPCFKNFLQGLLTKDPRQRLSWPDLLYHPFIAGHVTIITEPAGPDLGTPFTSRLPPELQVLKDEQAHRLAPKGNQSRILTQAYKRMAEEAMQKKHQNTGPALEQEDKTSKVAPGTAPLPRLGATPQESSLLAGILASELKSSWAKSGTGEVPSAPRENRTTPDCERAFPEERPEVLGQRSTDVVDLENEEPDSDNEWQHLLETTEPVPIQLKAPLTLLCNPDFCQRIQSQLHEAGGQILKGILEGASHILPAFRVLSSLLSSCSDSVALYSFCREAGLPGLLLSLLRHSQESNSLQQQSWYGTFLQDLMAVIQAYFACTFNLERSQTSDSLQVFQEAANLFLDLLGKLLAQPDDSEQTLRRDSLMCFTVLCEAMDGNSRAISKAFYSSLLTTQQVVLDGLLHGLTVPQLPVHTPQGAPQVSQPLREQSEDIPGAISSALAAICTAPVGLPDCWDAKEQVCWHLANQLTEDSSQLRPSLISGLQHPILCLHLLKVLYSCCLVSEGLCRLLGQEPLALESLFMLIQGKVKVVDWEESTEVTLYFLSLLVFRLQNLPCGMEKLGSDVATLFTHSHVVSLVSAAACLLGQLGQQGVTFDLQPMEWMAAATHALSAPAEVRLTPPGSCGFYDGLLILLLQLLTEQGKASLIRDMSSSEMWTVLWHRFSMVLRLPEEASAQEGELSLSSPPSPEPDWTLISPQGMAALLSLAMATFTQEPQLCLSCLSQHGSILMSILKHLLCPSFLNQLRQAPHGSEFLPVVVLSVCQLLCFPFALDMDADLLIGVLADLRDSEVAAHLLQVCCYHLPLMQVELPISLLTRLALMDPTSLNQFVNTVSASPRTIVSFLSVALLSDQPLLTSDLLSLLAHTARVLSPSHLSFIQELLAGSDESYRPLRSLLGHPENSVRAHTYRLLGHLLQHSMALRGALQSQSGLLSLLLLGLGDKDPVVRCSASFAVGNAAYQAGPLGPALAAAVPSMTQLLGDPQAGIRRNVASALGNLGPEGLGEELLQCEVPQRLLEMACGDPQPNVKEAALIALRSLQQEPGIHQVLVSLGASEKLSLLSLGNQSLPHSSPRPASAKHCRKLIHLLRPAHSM

Cc1cccc(-c2nc(Nc3ccncc3)c3ccccc3n2)n1 [NK215]
KINOMEscan ULK1 [1]: 0
KINOMEscan PIK3CB [2]: 0
KINOMEscan PRKCD [3]: 29
KINOMEscan MELK [4]: 11
KINOMEscan TRPM6 [5]: 0
KINOMEscan STK36 [6]: 5
